Experimental data from US12528826B2, “[1,4]oxazepino[2,3-c]quinolinone derivatives as BCL6 inhibitors” (Cancer Research Technology Limited, priority 2019, dated 2026).

Molecular target: T1, Trx-6×His-BCL6 (human BCL6 BTB domain covering amino-acid sequence 5-129) (Homo sapiens, UniProt P41182)
T1 construct: made in house
Experiment: HTRF assay (BCL6 / BCOR peptide)
Format: binding
Conditions: 1 nM Trx-6×His-BCL6, 300 nM BCOR-AF633 peptide, 2 hours incubation at room temperature; read-out: HTRF avg pIC50 (converted)
Method: After 2 hours incubation at room temperature the plate was read on a Pherastar FSX (BMG Labtech) plate reader equipped with 337 nm laser excitation filter, a first emission filter at 620 nm and a second emission filter at 665 nm. The % inhibition at each concentration was calculated by normalising FRET ratio to the appropriate high (DMSO with all reagents) and low (DMSO without BCL6) controls.

Compound | IC50 [nM]
CC1CCN(c2ncc(Cl)c(Nc3ccc4c(c3)c3c(c(=O)n4C)OCC(F)(F)[C@H](C4CC4)N3)n2)CC1C (mixture of isomers) [Example 12x07, (2S)-10-((5-chloro-2-(3,4-dimethylpiperidin-1-yl)pyrimidin-4-yl)amino)-2-cyclopropyl-3,3-difluoro-7-methyl-1,2,3,4-tetrahydro-[1,4]oxazepino[2,3-c]quinolin-6(7H)-one] | 46.8
Cn1c(=O)c2c(c3cc(Nc4nc(N5CCC(F)(F)C(C(=O)N6CCC6)C5)ncc4Cl)ccc31)N[C@@H](C1CC1)C(F)(F)CO2 (mixture of isomers) [Example 12x18, (2S)-10-((2-(3-(azetidine-1-carbonyl)-4,4-difluoropiperidin-1-yl)-5-chloropyrimidin-4-yl)amino)-2-cyclopropyl-3,3-difluoro-7-methyl-1,2,3,4-tetrahydro-[1,4]oxazepino[2,3-c]quinolin-6(7H)-one] | 5.5
Cn1c(=O)c2c(c3cc(Nc4nc(N5CCC(F)(F)C(C(=O)N6CC(F)(F)C6)C5)ncc4Cl)ccc31)N[C@@H](C1CC1)C(F)(F)CO2 (mixture of isomers) [Example 12x19, (2S)-10-((5-chloro-2-(3-(3,3-difluoroazetidine-1-carbonyl)-4,4-difluoropiperidin-1-yl)pyrimidin-4-yl)amino)-2-cyclopropyl-3,3-difluoro-7-methyl-1,2,3,4-tetrahydro-[1,4]oxazepino[2,3-c]quinolin-6(7H)-one] | 5.89
Cn1c(=O)c2c(c3cc(Nc4nc(N5CCC(F)(F)C(CC(=O)N6CC(F)(F)C6)C5)ncc4Cl)ccc31)N[C@@H](C1CC1)C(F)(F)CO2 (mixture of isomers) [Example 12x20, (2S)-10-((5-chloro-2-(3-(2-(3,3-difluoroazetidin-1-yl)-2-oxoethyl)-4,4-difluoropiperidin-1-yl)pyrimidin-4-yl)amino)-2-cyclopropyl-3,3-difluoro-7-methyl-1,2,3,4-tetrahydro-[1,4]oxazepino[2,3-c]quinolin-6(7H)-one] | 3.72
Cn1c(=O)c2c(c3cc(Nc4nc(N5CCC(F)(F)C(CC(=O)N6CCC6)C5)ncc4Cl)ccc31)N[C@@H](C1CC1)C(F)(F)CO2 (mixture of isomers) [Example 12x21, (2S)-10-((2-(3-(2-(azetidin-1-yl)-2-oxoethyl)-4,4-difluoropiperidin-1-yl)-5-chloropyrimidin-4-yl)amino)-2-cyclopropyl-3,3-difluoro-7-methyl-1,2,3,4-tetrahydro-[1,4]oxazepino[2,3-c]quinolin-6(7H)-one] | 3.55
CC1CCN1c1ncc(Cl)c(Nc2ccc3c(c2)c2c(c(=O)n3C)OCC(F)(F)[C@H](C3CC3)N2)n1 (mixture of isomers) [Example 12x36, (2S)-10-((5-chloro-2-(2-methylazetidin-1-yl)pyrimidin-4-yl)amino)-2-cyclopropyl-3,3-difluoro-7-methyl-1,2,3,4-tetrahydro-[1,4]oxazepino[2,3-c]quinolin-6(7H)-one] | 7.76
CC1CCCN(c2ncc(Cl)c(Nc3ccc4c(c3)c3c(c(=O)n4C)OCC(F)(F)[C@H](C4CC4)N3)n2)C1CO (mixture of isomers) [Example 12x46, (2S)-10-((5-chloro-2-(2-(hydroxymethyl)-3-methylpiperidin-1-yl)pyrimidin-4-yl)amino)-2-cyclopropyl-3,3-difluoro-7-methyl-1,2,3,4-tetrahydro-[1,4]oxazepino[2,3-c]quinolin-6(7H)-one] | 11.2
Cn1c(=O)c2c(c3cc(Nc4nc(N5CCC(F)(F)CC5CO)ncc4Cl)ccc31)N[C@@H](C1CC1)C(F)(F)CO2 (mixture of isomers) [Example 12x50, (2S)-10-((5-chloro-2-(4,4-difluoro-2-(hydroxymethyl)piperidin-1-yl)pyrimidin-4-yl)amino)-2-cyclopropyl-3,3-difluoro-7-methyl-1,2,3,4-tetrahydro-[1,4]oxazepino[2,3-c]quinolin-6(7H)-one] | 7.08
CCNC(=O)[C@@H]1C[C@H](C)CN(c2ncc(Cl)c(Nc3ccc4c(c3)c3c(c(=O)n4C)OCC(F)(F)[C@H](C4CC4)N3)n2)C1 (racemic) [Example 9c, (3R,5S)-1-(5-chloro-4-(((S)-2-cyclopropyl-3,3-difluoro-7-methyl-6-oxo-1,2,3,4,6,7-hexahydro-[1,4]oxazepino[2,3-c]quinolin-10-yl)amino)pyrimidin-2-yl)-N-ethyl-5-methylpiperidine-3-carboxamide; (3S,5R)-1-(5-chloro-4-(((S)-2-cyclopropyl-3,3-difluoro-7-methyl-6-oxo-1,2,3,4,6,7-hexahydro-[1,4]oxazepino[2,3-c]quinolin-10-yl)amino)pyrimidin-2-yl)-N-ethyl-5-methylpiperidine-3-carboxamide] | 3.47
C[C@H]1C[C@@H](CO)CN(c2ncc(Cl)c(Nc3ccc4c(c3)c3c(c(=O)n4C)OCC(F)(F)[C@H](C4CC4)N3)n2)C1 (racemic) [Example 9d, (S)-10-((5-chloro-2-((3R,5S)-3-(hydroxymethyl)-5-methylpiperidin-1-yl)pyrimidin-4-yl)amino)-2-cyclopropyl-3,3-difluoro-7-methyl-1,2,3,4-tetrahydro-[1,4]oxazepino[2,3-c]quinolin-6(7H)-one; (S)-10-((5-chloro-2-((3S,5R)-3-(hydroxymethyl)-5-methylpiperidin-1-yl)pyrimidin-4-yl)amino)-2-cyclopropyl-3,3-difluoro-7-methyl-1,2,3,4-tetrahydro-[1,4]oxazepino[2,3-c]quinolin-6(7H)-one] | 4.17
Cn1c(=O)c2c(c3cc(Nc4nc(N5CCC(F)(F)C(O)C5)ncc4Cl)ccc31)N[C@@H](C1CC1)C(F)(F)CO2 (mixture of isomers) [Example 9e, (S)-10-((5-chloro-2-((R)-4,4-difluoro-3-hydroxypiperidin-1-yl)pyrimidin-4-yl)amino)-2-cyclopropyl-3,3-difluoro-7-methyl-1,2,3,4-tetrahydro-[1,4]oxazepino[2,3-c]quinolin-6(7H)-one; (S)-10-((5-chloro-2-((S)-4,4-difluoro-3-hydroxypiperidin-1-yl)pyrimidin-4-yl)amino)-2-cyclopropyl-3,3-difluoro-7-methyl-1,2,3,4-tetrahydro-[1,4]oxazepino[2,3-c]quinolin-6(7H)-one] | 3.72
Cn1c(=O)c2c(c3cc(Nc4nc(N5CCCC(CF)C5)ncc4Cl)ccc31)N[C@@H](C1CC1)C(F)(F)CO2 (mixture of isomers) [Example 9f, (S)-10-((5-chloro-2-((R)-3-(fluoromethyl)piperidin-1-yl)pyrimidin-4-yl)amino)-2-cyclopropyl-3,3-difluoro-7-methyl-1,2,3,4-tetrahydro-[1,4]oxazepino[2,3-c]quinolin-6(7H)-one; (S)-10-((5-chloro-2-((S)-3-(fluoromethyl)piperidin-1-yl)pyrimidin-4-yl)amino)-2-cyclopropyl-3,3-difluoro-7-methyl-1,2,3,4-tetrahydro-[1,4]oxazepino[2,3-c]quinolin-6(7H)-one] | 10.2
Cn1c(=O)c2c(c3cc(Nc4nc(N5CCC(F)(F)C(CC(N)=O)C5)ncc4Cl)ccc31)N[C@@H](C1CC1)C(F)(F)CO2 (mixture of isomers) [Example 9g] | 2.29
CCNC(=O)C1CN(c2ncc(Cl)c(Nc3ccc4c(c3)c3c(c(=O)n4C)OCC(F)(F)[C@H](C4CC4)N3)n2)CCC1(F)F (mixture of isomers) [Example 9j, (R)-1-(5-chloro-4-(((S)-2-cyclopropyl-3,3-difluoro-7-methyl-6-oxo-1,2,3,4,6,7-hexahydro-[1,4]oxazepino[2,3-c]quinolin-10-yl)amino)pyrimidin-2-yl)-N-ethyl-4,4-difluoropiperidine-3-carboxamide; (S)-1-(5-chloro-4-(((S)-2-cyclopropyl-3,3-difluoro-7-methyl-6-oxo-1,2,3,4,6,7-hexahydro-[1,4]oxazepino[2,3-c]quinolin-10-yl)amino)pyrimidin-2-yl)-N-ethyl-4,4-difluoropiperidine-3-carboxamide] | 4.17
CCN(CC1CN(c2ncc(Cl)c(Nc3ccc4c(c3)c3c(c(=O)n4C)OCC(F)(F)[C@H](C4CC4)N3)n2)CCC1(F)F)C(C)=O (mixture of isomers) [Example 9k] | 4.27
Cn1c(=O)c2c(c3cc(Nc4nc(N5CC6CC5CC6(F)F)ncc4Cl)ccc31)N[C@@H](C1CC1)C(F)(F)CO2 (mixture of isomers) [Example 9l, (S)-10-((5-chloro-2-((1R,4R)-5,5-difluoro-2-azabicyclo[2.2.1]heptan-2-yl)pyrimidin-4-yl)amino)-2-cyclopropyl-3,3-difluoro-7-methyl-1,2,3,4-tetrahydro-[1,4]oxazepino[2,3-c]quinolin-6(7H)-one; (S)-10-((5-chloro-2-((1S,4S)-5,5-difluoro-2-azabicyclo[2.2.1]heptan-2-yl)pyrimidin-4-yl)amino)-2-cyclopropyl-3,3-difluoro-7-methyl-1,2,3,4-tetrahydro-[1,4]oxazepino[2,3-c]quinolin-6(7H)-one] | 11.7
CCN1CC2CCC(C1=O)N2c1ncc(Cl)c(Nc2ccc3c(c2)c2c(c(=O)n3C)OCC(F)(F)[C@H](C3CC3)N2)n1 (mixture of isomers) [Example 9r, (S)-10-((5-chloro-2-((1S,5R)-3-ethyl-2-oxo-3,8-diazabicyclo[3.2.1]octan-8-yl)pyrimidin-4-yl)amino)-2-cyclopropyl-3,3-difluoro-7-methyl-1,2,3,4-tetrahydro-[1,4]oxazepino[2,3-c]quinolin-6(7H)-one; (S)-10-((5-chloro-2-((1R,5S)-3-ethyl-2-oxo-3,8-diazabicyclo[3.2.1]octan-8-yl)pyrimidin-4-yl)amino)-2-cyclopropyl-3,3-difluoro-7-methyl-1,2,3,4-tetrahydro-[1,4]oxazepino[2,3-c]quinolin-6(7H)-one] | 3.63
